For data set [1], the system named is Bacillus subtilis (ATCC43639). As to the kind of experiment: Microtitre plate assay, IC90 determination. Type of data set: cell-based. The following applies: 90% inhibitory concentration for bacterial growth, 37° C., resazurin fluorescence, read-out: IC90 (μg/ml) BSU 43639. The procedure:
(§1) The bacteria used in this study were grown overnight in flasks containing 100 ml Mueller-Hinton Broth (Becton Dickinson—cat. no. 275730) in sterile de-ionized water, with shaking, at 37° C. Stocks (0.5 ml/tube) were stored at −70° C. until use. Bacteria titrations were performed in microtiter plates and colony forming units (CFUs) were determined. In general, an inoculum level of approximately 100 CFUs was used for susceptibility testing.
(§2) Anti Bacterial Susceptibility Testing: IC90 Determination
(§3) Flat-bottom, sterile 96-well plastic microtiter plates were filled with 180 μl of sterile deionized water, supplemented with 0.25% BSA. Subsequently, stock solutions (7.8×final test concentration) of compounds were added in 45 μl volumes in column 2 Serial five-fold dilutions (45 μl in 180 μl) were made directly in the microtiter plates from column 2 to reach column 11. Untreated control samples with (column 1) and without (column 12) inoculum were included in each microtiter plate. Depending on the bacteria type, approximately 10 to 60 CFU per well of bacteria inoculum (100 TCID50), in a volume of 100 μl in 2.8× Mueller-Hinton broth medium, was added to the rows A to H, except column 12. The same volume of broth medium without inoculum was added to column 12 in row A to H. The cultures were incubated at 37° C. for 24 hours under a normal atmosphere (incubator with open air valve and continuous ventilation). At the end of incubation, one day after inoculation, the bacterial growth was quantitated fluorometrically. Therefore resazurin (0.6 mg/ml) was added in a volume of 20 μl to all wells […], and the plates were re-incubated overnight. A change in colour from blue to pink indicated the growth of bacteria.
(§4) The fluorescence was read in a computer-controlled fluorometer (Cytofluor Biosearch) at an excitation wavelength of 530 nm and an emission wavelength of 590 nm. The % growth inhibition achieved by the compounds was calculated according to standard methods. The IC90 (expressed in μg/ml) was defined as the 90% inhibitory concentration for bacterial growth.
Background: Alamar Blue is a resazurin reagent that responds to reducing activity.

Data set [2] deals with Enterococcus faecalis (ATCC14506). As to the kind of experiment: Microtitre plate assay, IC90 determination. Type of data set: cell-based. As to conditions: 90% inhibitory concentration for bacterial growth, 37° C., resazurin fluorescence, read-out: IC90 (μg/ml) EFA 14506. Here is the method: as §1, §2, §3, §4
The test system of data set [3] is Enterococcus faecalis (ATCC29212). As to the kind of experiment: Microtitre plate assay, IC90 determination. Type of data set: cell-based. As to conditions: 90% inhibitory concentration for bacterial growth, 37° C., resazurin fluorescence, read-out: IC90 (μg/ml) EFA 29212. The procedure: as §1, §2, §3, §4
Data set [4] has as its system Listeria monocytogenes (ATCC49594). The data set is described as follows: Microtitre plate assay, IC90 determination. The following applies: 90% inhibitory concentration for bacterial growth, 37° C., resazurin fluorescence, read-out: IC90 (μg/ml) LMO 49594. Type of data set: cell-based. The procedure:
as §1, §2, §3, §4

Data set [5] concerns Pseudomonas aeruginosa (ATCC27853). The data set is described as follows: Microtitre plate assay, IC90 determination. Type of data set: cell-based. The following applies: 90% inhibitory concentration for bacterial growth, 37° C., resazurin fluorescence, read-out: IC90 (μg/ml) PAE 27853. Here is the method:
as §1, §2, §3, §4

The subject of data set [6] is Staphylococcus aureus (ATCC25923). As to the kind of experiment: Microtitre plate assay, IC90 determination. Type of data set: cell-based. As to conditions: 90% inhibitory concentration for bacterial growth, 37° C., resazurin fluorescence, read-out: IC90 (μg/ml) STA 25923. The procedure: as §1, §2, §3, §4
Data set [7] concerns Staphylococcus aureus (ATCC29213). The data set is described as follows: Microtitre plate assay, IC90 determination. Type of data set: cell-based. As to conditions: 90% inhibitory concentration for bacterial growth, 37° C., resazurin fluorescence, read-out: IC90 (μg/ml) STA 29213. The procedure: as §1, §2, §3, §4
Data set [8] concerns Streptococcus mutans (ATCC33402). As to the kind of experiment: Microtitre plate assay, IC90 determination. The class given is cell-based. As to conditions: 90% inhibitory concentration for bacterial growth, 37° C., resazurin fluorescence, read-out: IC90 (μg/ml) SMU 33402. The procedure: as §1, §2, §3, §4
In data set [9] the test system is Streptococcus pneumoniae (ATCC6305). As to the kind of experiment: Microtitre plate assay, IC90 determination. The class given is cell-based. As to conditions: 90% inhibitory concentration for bacterial growth, 37° C., resazurin fluorescence, read-out: IC90 (μg/ml) SPN 6305. The procedure:
as §1, §2, §3, §4

Data set [10] concerns Streptococcus pyogens (ATCC8668). As to the kind of experiment: Microtitre plate assay, IC90 determination. Type of data set: cell-based. As to conditions: 90% inhibitory concentration for bacterial growth, 37° C., resazurin fluorescence, read-out: IC90 (μg/ml) SPY 8668. Here is the method: as §1, §2, §3, §4
The test system of data set [11] is methicilline resistant Staphylococcus aureus (MRSA) (a clinical isolate from the University of Antwerp). The data set is described as follows: Microtitre plate assay, IC90 determination. Type of data set: cell-based. As to conditions: 90% inhibitory concentration for bacterial growth, 37° C., resazurin fluorescence, read-out: IC90 (μg/ml) STA RMETHIC. The procedure: as §1, §2, §3, §4

In brackets after ≈: the same amount, converted by molar mass. Counter-ions that a name gives are not always drawn.

Turning to `CN(C)CCC(O)(c1cc(F)cc(F)c1)c1ccc2nc(-c3cccnc3)cc(-c3ccccc3)c2c1` (centres unmarked) (as salt: salt) [Compound 42], the melting point is 151 °C.

Regarding `CN(C)CCC(O)(c1cc(F)cc(F)c1)c1cccc2nc(N(C)C)c(-c3ccccc3)cc12` (centres unmarked) (as salt: salt) [Compound 45], the melting point amounted to 136 °C.

On to `COc1nc2c(C(O)(CCN(C)C)c3cc(F)cc(F)c3)cc(-c3cccnc3)cc2cc1-c1ccccc1` (centres unmarked) (as salt: salt) [Compound 64], for which the melting point amounted to 156 °C.

In the case of `COc1nc2cccc(C(O)(CCN(C)C)c3cc(F)cc(F)c3)c2cc1-c1ccccc1` (centres unmarked) [Compound 1], the IC90 in [1], in data set [2], in data set [3], in data set [4], in [5] and in [6] was 11.3 µg/mL (≈ 25.2 µM) each time. For the same compound, the IC90 in data set [7] came to 11.3 µg/mL (≈ 25.2 µM); in [8], 9 µg/mL (≈ 20.1 µM); in data set [9], 11.3 µg/mL (≈ 25.2 µM); in data set [10] it was 9 µg/mL (≈ 20.1 µM); in [11], 11.3 µg/mL (≈ 25.2 µM).

`CN(C)CCC(O)(c1cccc2ccccc12)c1cc(Br)cc2cc(Cc3ccccc3)c(-n3ccnc3)nc12` (centres unmarked) [Compound 24]: the IC90 is 11.8 µg/mL (≈ 19.9 µM) in data set [1]; 11.8 µg/mL (≈ 19.9 µM) in data set [2]; 14.9 µg/mL (≈ 25.2 µM) in [3]; 14.9 µg/mL (≈ 25.2 µM) in data set [4]; 14.9 µg/mL (≈ 25.2 µM) in [5]; 13.2 µg/mL (≈ 22.3 µM) in data set [6]. Moreover, the IC90 worked out at 11.8 µg/mL (≈ 19.9 µM) in [7]; 11.8 µg/mL (≈ 19.9 µM) in data set [8]; 14.9 µg/mL (≈ 25.2 µM) in data set [9]; 11.8 µg/mL (≈ 19.9 µM) in data set [10]; 14.9 µg/mL (≈ 25.2 µM) in data set [11].

Consider `CN(C)CCC(O)(c1cccc2ccccc12)c1cc(Br)cc2cc(Cc3ccccc3)c(N3CCN(c4n[nH]c5ccccc45)CC3)nc12` (centres unmarked) [Compound 26], for which the IC90 in data set [1] turned out to be 14.5 µg/mL (≈ 20 µM); in data set [2], 14.5 µg/mL (≈ 20 µM); in data set [3] it was 3.6 µg/mL (≈ 4.96 µM); in data set [4], 3.6 µg/mL (≈ 4.96 µM); in data set [5], 2.9 µg/mL (≈ 4 µM); in data set [6], 7.3 µg/mL (≈ 10.1 µM). For the same compound, the IC90 in data set [7] was found to be 16.3 µg/mL (≈ 22.5 µM); in data set [8], 2.9 µg/mL (≈ 4 µM); in data set [9], 3.6 µg/mL (≈ 4.96 µM); in [10], 2.9 µg/mL (≈ 4 µM); in [11], 18.2 µg/mL (≈ 25.1 µM).

Regarding `CN(C)CCC(O)(c1cccc2ccccc12)c1cc(Br)cc2cc(-c3ccccc3)c(-n3cncn3)nc12` (centres unmarked) [Compound 33], the IC90 in data set [1] is 11.5 µg/mL (≈ 19.9 µM); in data set [2], 46 µg/mL (≈ 79.5 µM); in data set [3] it was 14.5 µg/mL (≈ 25.1 µM); in data set [4] it was 14.5 µg/mL (≈ 25.1 µM); in [5] it was 14.5 µg/mL (≈ 25.1 µM); in data set [6], 14.5 µg/mL (≈ 25.1 µM). Besides, the IC90 in [7] is 14.5 µg/mL (≈ 25.1 µM); in [8] it was 11.5 µg/mL (≈ 19.9 µM); in data set [9], 14.5 µg/mL (≈ 25.1 µM); in data set [10], 11.5 µg/mL (≈ 19.9 µM); in data set [11] it was 14.5 µg/mL (≈ 25.1 µM).

With `CN(C)CCC(O)(c1cc(F)cc(F)c1)c1ccc2nc(-c3cccnc3)cc(-c3ccccc3)c2c1` (centres unmarked) [Compound 42], the IC90 amounted to 12.5 µg/mL (≈ 25.2 µM) in data set [1]; 12.5 µg/mL (≈ 25.2 µM) in data set [3]; 39.4 µg/mL (≈ 79.5 µM) in data set [4]; 12.5 µg/mL (≈ 25.2 µM) in data set [5]; 9.9 µg/mL (≈ 20 µM) in data set [6]; 39.4 µg/mL (≈ 79.5 µM) in data set [7]. In addition, the IC90 in [9] stood at 12.5 µg/mL (≈ 25.2 µM); in data set [10] it was 12.5 µg/mL (≈ 25.2 µM); in [11] it was 49.6 µg/mL (≈ 100 µM).

One may read the melting point as the temperature of the solid-liquid transition.

(Values after patent US8017606B2, “Quinoline derivatives as antibacterial agents” (Janssen Pharmaceutica NV, priority 2005, dated 2011).)
